This note sets out measurements from article PMC9930818, “2-((1H-Benzo[d]imidazol-2-yl)amino)benzo[d]thiazole-6-sulphonamides: a class of carbonic anhydrase II and VII-selective inhibitors” (Journal of Enzyme Inhibition and Medicinal Chemistry, 2023).

Read-outs that look alike come from different tables or passages of the source.

Common to all, as to experiment: stopped-flow CO2 hydration assay
Holding throughout (format): biochemical

One test deals with T1, hCA I (Homo sapiens, UniProt P00915).
T1 construct: gene CA1; recombinant, obtained in-house as reported earlier; cytosolic isoform
T1 sequence (P00915 2-261): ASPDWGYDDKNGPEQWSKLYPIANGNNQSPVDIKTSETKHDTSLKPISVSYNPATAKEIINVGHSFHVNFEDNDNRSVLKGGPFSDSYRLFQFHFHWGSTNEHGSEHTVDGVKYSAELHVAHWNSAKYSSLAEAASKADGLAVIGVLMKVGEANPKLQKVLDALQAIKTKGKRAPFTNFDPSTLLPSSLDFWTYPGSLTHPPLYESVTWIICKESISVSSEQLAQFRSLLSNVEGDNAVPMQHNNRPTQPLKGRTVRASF
From the text:
stopped-flow CO2 hydration assay on hCA I

Test [1] has as its target T2, hCA II (Homo sapiens, UniProt P00918).
T2 construct: gene CA2; recombinant, obtained in-house as reported earlier; cytosolic isoform
From the text: stopped-flow CO2 hydration assay on hCA II

In test [2] the target is T3, hCA IV (Homo sapiens, UniProt P22748).
T3 construct: gene CA4; recombinant, obtained in-house as reported earlier
T3 sequence (P22748 19-284): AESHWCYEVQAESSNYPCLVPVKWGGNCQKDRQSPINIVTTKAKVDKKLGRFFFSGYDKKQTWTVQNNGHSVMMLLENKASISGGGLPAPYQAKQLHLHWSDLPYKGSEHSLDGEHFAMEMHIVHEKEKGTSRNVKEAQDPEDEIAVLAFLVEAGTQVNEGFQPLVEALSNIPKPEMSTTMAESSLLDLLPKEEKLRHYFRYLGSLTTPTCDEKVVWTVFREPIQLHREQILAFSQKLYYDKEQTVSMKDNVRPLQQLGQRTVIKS
An excerpt:
stopped-flow CO2 hydration assay on hCA IV

Test [3] addresses T4, hCA VII (Homo sapiens, UniProt P43166).
T4 construct: gene CA7; recombinant, obtained in-house as reported earlier; cytosolic isoform
From the text: stopped-flow CO2 hydration assay on hCA VII

Test [4] concerns the target T4, hCA VII. The following applies: read-out: KI (nM)^a / hCA I.
Test [5] concerns the target T2, hCA II. The following applies: read-out: KI (nM)^a / hCA I.
Test [6] concerns the target T3, hCA IV. The following applies: read-out: KI (nM)^a / hCA I.

T4 sequence (P43166 whole entry, canonical isoform): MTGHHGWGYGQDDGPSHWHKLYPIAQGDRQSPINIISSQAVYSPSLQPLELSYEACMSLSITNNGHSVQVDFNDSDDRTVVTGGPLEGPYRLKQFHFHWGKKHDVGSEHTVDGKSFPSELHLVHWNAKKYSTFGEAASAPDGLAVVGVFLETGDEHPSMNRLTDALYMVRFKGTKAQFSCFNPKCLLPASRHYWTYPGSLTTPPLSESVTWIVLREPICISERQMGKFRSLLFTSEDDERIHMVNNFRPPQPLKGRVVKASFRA

Consider `NS(=O)(=O)c1ccc2nc(NC3=NCCN3)sc2c1` [6a, 2-((4,5-Dihydro-1H-imidazol-2-yl)amino)benzo[d]thiazole-6-sulphonamide], for which the Ki at hCA I is 422 nM; on hCA II [1] it was 37.6 nM; at hCA IV [2], above 100000 nM; on hCA VII [3] it was 56.3 nM.

With `CC1CN=C(Nc2nc3ccc(S(N)(=O)=O)cc3s2)N1` (stereo not shown) [6b, 2-((5-Methyl-4,5-dihydro-1H-imidazol-2-yl)amino)benzo[d]thiazole-6-sulphonamide], the Ki was 568 nM at hCA I, 48.1 nM on hCA II [1], above 100000 nM at hCA IV [2] and 37.4 nM at hCA VII [3].

Regarding `NS(=O)(=O)c1ccc2nc(NC3=NC4CCCCC4N3)sc2c1` (stereo not shown) [6c, 2-((3a,4,5,6,7,7a-hexahydro-1H-benzo[d]imidazol-2-yl)amino)benzo[d]thiazole-6-sulphonamide], the Ki at hCA I is 7590 nM; on hCA II [1], 65.6 nM; at hCA IV [2], above 100000 nM; at hCA VII [3] it was 82.5 nM.

Take `NS(=O)(=O)c1ccc2nc(Nc3nc4ccccc4[nH]3)sc2c1` [7a, 2-((1H-benzo[d]imidazol-2-yl)amino)benzo[d]thiazole-6-sulphonamide]: the Ki on hCA I is 4930 nM; on hCA II [1], 84 nM; at hCA IV [2], above 100000 nM; on hCA VII [3], 66.9 nM.

Regarding `NS(=O)(=O)c1ccc2nc(Nc3nc4ccc(C(F)(F)F)cc4[nH]3)sc2c1` [7b, 2-((6-(Trifluoromethyl)-1H-benzo[d]imidazol-2-yl)amino)benzo[d]thiazole-6-sulphonamide], the Ki was 8100 nM on hCA I, 375 nM at hCA II [1], above 100000 nM on hCA IV [2] and 452 nM at hCA VII [3].

Take `NS(=O)(=O)c1ccc2nc(Nc3nc4ccc(Cl)cc4[nH]3)sc2c1` [7c, 2-((6-Chloro-1H-benzo[d]imidazol-2-yl)amino)benzo[d]thiazole-6-sulphonamide]: the Ki is 9530 nM on hCA I, 578 nM on hCA II [1], above 100000 nM on hCA IV [2] and 694 nM at hCA VII [3].

On to `O=S(=O)(NC1=NCCN1)c1ccc2nc(NC3=NCCN3)sc2c1` [9a, N-(4,5-Dihydro-1H-imidazol-2-yl)-2-((4,5-dihydro-1H-imidazol-2-yl)amino)benzo[d]thiazole-6-sulphonamide], for which the Ki at hCA VII [4], on hCA II [5], at hCA I and on hCA IV [6] was above 100000 nM each time.

`CC1CN=C(Nc2nc3ccc(S(=O)(=O)NC4=NCC(C)N4)cc3s2)N1` (stereo not shown) [9b]: the Ki at hCA VII [4], at hCA II [5], at hCA I and at hCA IV [6] was above 100000 nM each time.

`O=S(=O)(NC1=NC2CCCCC2N1)c1ccc2nc(NC3=NC4CCCCC4N3)sc2c1` (stereo not shown) [9c, N-(3a,4,5,6,7,7a-hexahydro-1H-benzo[d]imidazol-2-yl)-2-((3a,4,5,6,7,7a-hexahydro-1H-benzo[d]imidazol-2-yl)amino)benzo[d]thiazole-6-sulphonamide]: the Ki at hCA VII [4], at hCA II [5], at hCA I and at hCA IV [6] was above 100000 nM in each case.

For the compound `O=S(=O)(Nc1nc2ccccc2[nH]1)c1ccc2nc(Nc3nc4ccccc4[nH]3)sc2c1` [9d], the Ki on hCA VII [4], on hCA II [5], at hCA I and at hCA IV [6] was above 100000 nM each time.
